The values below come from paper PMC11819963, “In Vitro CO-Releasing and Antioxidant Properties of Sulfonamide-Based CAI-CORMs in a H2O2-Stimulated Human Achilles Tendon-Derived Cell Model” (Molecules, 2025).

Data set [1] addresses hCA IX (Homo sapiens, UniProt Q16790). Kind of data set: stopped-flow CO2 hydrase assay, hCA IX. Format: biochemical. To be noted: mean from three assays, errors ±5–10%. The protocol:
(§1) The CO2 concentrations ranged from 1.7 to 17 mM for the determination of the kinetic parameters and inhibition constants. […] The uncatalysed rates were determined in the same manner and subtracted from the total observed rates. […] The inhibition constants were obtained by non-linear least-squares methods using PRISM 3 and the Cheng–Prusoff equation and represent the mean from at least three different determinations.

For data set [2], the target named is hCA XII (Homo sapiens, UniProt O43570). Kind of data set: stopped-flow CO2 hydrase assay, hCA XII. In kind it is biochemical. To be noted: mean from three assays, errors ±5–10%. The procedure:
as §1

Data set [3] deals with reduced myoglobin (deoxy-Mb). As to the kind of experiment: myoglobin carbonylation assay (CO release). As to conditions: for MbCO formed: after 210 min of incubation, 1:1 CORM–Mb ratio (about 20 μM CORM); for CO-release profile (MbCO formed over time): 1:1 and 1:6 CORM:Mb, up to 300 min, comparison within series. Further details: species or system horse. The protocol: To determine the CO-releasing properties of the designed compounds, the myoglobin carbonylation assay was employed, with some deviations from the standard protocol, as previously reported. The analysed compounds were incubated with reduced myoglobin (deoxy-Mb), and spectra were recorded every 30 min up to 300 min. The release of CO was assessed by evaluating the formation of carbonylated myoglobin (Mb-CO) over time (Figure 3). […] The releasing properties of the compounds were also expressed as CO units released after 300 min of incubation with Mb, as reported in Figure S1 (Supplementary Information File).
All the employed reagents were of analytical grade and acquired from Merck (Milan, Italy). Gaseous CO was obtained from Rivoira (Milan, Italy). A Shimadzu UV1900 UV-Vis Spectrophotometer from 275 to 700 nm at the scanning rate of 200 nm/min was used to record UV-Vis absorption spectra in a disposable plastic cuvette (path length 0.44 cm). The second derivative spectra were generated with the Origin Lab software, and the Savitzky–Golay method was applied using 25 data points for the differentiation process. Neither an increase nor a decrease in the number of points caused changes in the wavelength or in the bandwidth. Lyophilised horse heart Mb was dissolved in phosphate-buffered saline flushed with N2 (PBS, 0.01 M, pH 7.4 to a 20–22 μM final concentration). Two millilitres of this freshly prepared stock solution were placed in a cuvette to record the UV-Vis absorption spectrum of met-Mb. Next, the solutions were divided into two halves: 10 μL of sodium dithionite (30 mg/mL) was added to the first half (reference), and the UV–Vis spectrum of deoxy-Mb was registered. After that, the solution was flushed with CO gas, and the Mb-CO spectrum was acquired. Sodium dithionite was added to the second half (sample), and a spectrum was recorded. Afterwards, a CORM DMSO solution was added to a final CORM concentration of 1.67 μM, 3.33 μM or 20 μM and gently mixed. The solution was covered with 300 μL of light mineral oil to avoid CO escaping and oxygenation of Mb, and the absorption spectrum was recorded at t = 0. Spectra were acquired every 30 min for 300 min, keeping the sample at 37 °C. When necessary, a freshly prepared sodium dithionite solution was added. After 300 min, the total Mb concentration at the end of the assay was determined by flushing the sample with CO gas. Mb-CO concentration at each time point was determined, as previously reported. Each experiment was replicated three times, and the data were expressed as mean ± SEM.

The subject of data set [4] is Human Achilles tendon-derived tenocytes. As to the kind of experiment: cell metabolic activity (MTT test), basal conditions. Format: cell-based. As to conditions: 6.25–50 µM; for cell metabolic activity (MTT): vs untreated control. (In general: Formazan colour is commonly taken as a measure of viable cells.)
Procedure: (§3) Human Achilles tendon-derived tenocytes (#TEN-F) were purchased by ZenBio Inc. (Durham, NC, USA) and maintained in complete alpha-MEM (EuroClone, Milan, Italy) supplemented with 10% of heat-inactivated FBS (Gibco, Thermo Fisher Scientific, Waltham, MA, USA) and 1% penicillin/streptomycin (EuroClone, Milan, Italy) at 37 °C and 5% CO2 and used from passage 3 up to passage 6.
(§4) Cells were seeded in 96-well plates (0.5 × 10^4/well) or 6-well plates (0.5 × 10^5/well) (ThermoFisher Scientific, Waltham, MA, USA) and left to adhere overnight at 37 °C and 5% CO2. For cell metabolic activity experiments (MTT test), tenocytes were treated with increasing concentrations of compounds (range 0–50 µM) for 24 and 48 h. Compounds were dissolved in DMSO to obtain a 200 mM stock solution, and they were afterwards diluted in complete alpha-MEM (DMSO final concentration = 0.1%) for further analyses. In a second set of MTT experiments, tenocytes were pre-incubated with 100 µM H2O2 for 3 h. After that, the pre-incubation medium was discarded and replaced with a fresh one containing the proper compound at increasing concentrations for 24 and 48 h. At the established time points, samples were processed for further analyses.
(§5) Tenocytes were seeded in 96 well tissue culture-treated plates (Falcon®, Corning Incorporated, Brooklyn, NY, USA) at 0.5 × 10^4 cells/well. Untreated cells (0 µM) were set as control (100% of cell metabolic activity). At the established time points, the exposure media were replaced by fresh medium containing 3-(4,5-dimethylthiazol-2-yl)-2,5-diphenyltetrazolium bromide (MTT) 0.5 mg/mL (Merck, Darmstadt, Germany) and processed as elsewhere reported [18]. The optical density in each well was measured using a spectrophotometer (Thermo Fisher Scientific, Waltham, MA, USA) at a wavelength of 540 nm. Each experiment was performed three times in triplicates per experimental condition (n = 9).
Data set [5] concerns H2O2-stimulated human Achilles tendon-derived tenocytes. As to the kind of experiment: cell cycle analysis by flow cytometry (propidium iodide). In kind it is cell-based. As to conditions: 48 h, after H2O2 100 µM for 3 h. The procedure:
(§2) Compound A and acetazolamide were administered as reference compounds.
The progression of the cell cycle was assessed by flow cytometry, as already reported. Briefly, after the pre-incubation with H2O2 (100 µM for 3 h) and the exposure time (48 h), approximately 0.5 × 10^5 cells/experimental condition were fixed with cold ethanol 70% v/v and afterwards stained with 1 mg/mL propidium iodide (PI) (final concentration 10 µg/mL) and 10 mg/mL RNAse (final concentration 100 µg/mL) and kept overnight at 4 °C in the dark. Each experiment was performed two times in triplicates per experimental condition (n = 6). Cell cycle profiles (1 × 10^4 events/sample) were finally analysed with a CytoFLEX flow cytometer (Beckman Coulter, Indianapolis, IN, USA), and data were quantified using the ModFit LT™ 4.0 software (De Novo Software, Glendale, CA, USA).

For data set [6] the test system is unchanged. As to the kind of experiment: collagen type I secretion (ELISA). In kind it is cell-based. To be noted: 48 h, after H2O2 100 µM for 3 h, compared to untreated cells, normalised on MTT. The protocol: as §2
Amounts of collagen type I secreted in supernatants harvested from 96 well plates were detected by a human collagen type 1 ELISA kit (Cosmo Bio Co., Ltd., Tokyo, Japan; cat. no. ACE-EC1-E105-EX). Samples were pipetted into suitably coated wells as described elsewhere. Each ELISA test was performed three times in duplicates per experimental condition (n = 6). The concentration of collagen type I (µg/mL) was calculated using a standard curve generated with a specific standard provided by the manufacturer by means of the Prism 5.0 software (GraphPad, San Diego, CA, USA).
For orientation: An ELISA detects its analyte on a solid surface through an enzyme-linked reagent.

The test system is the same in data set [7]. Kind of data set: cell metabolic activity (MTT test), pre-incubation with H2O2. In kind it is cell-based. As to conditions: 6.25–50 µM, after H2O2 100 µM for 3 h.
Procedure: as §3, §4, §5

hCA XII, sequence (O43570 25-354): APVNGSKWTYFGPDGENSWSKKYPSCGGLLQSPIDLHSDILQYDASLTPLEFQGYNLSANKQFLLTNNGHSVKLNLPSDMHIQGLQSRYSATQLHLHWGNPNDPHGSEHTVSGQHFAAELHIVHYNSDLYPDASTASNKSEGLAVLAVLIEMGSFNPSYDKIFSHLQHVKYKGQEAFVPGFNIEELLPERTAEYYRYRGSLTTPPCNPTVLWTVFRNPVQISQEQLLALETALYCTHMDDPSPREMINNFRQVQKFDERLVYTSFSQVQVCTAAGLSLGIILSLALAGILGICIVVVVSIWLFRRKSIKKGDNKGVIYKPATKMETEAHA

Usually Ki stands for the equilibrium dissociation constant of an inhibitor or competing ligand from its target. High values mean lower affinity, low ones higher affinity. “4-(Diprop-2′-ynylamino)benzenesulfonamide hexacarbonyldicobalt [1c]”: the Ki in data set [1] is 6.2 nM; in data set [2], 7.5 nM. The MbCO formed in data set [3] is 3.66 µM. In data set [3] (after 300 min of incubation with Mb, 1:12 CORM:Mb ratio (1.67 μM CORM), 37 °C), the CO units released was determined as 2.3 CO units. Besides, in data set [4] (48 h exposure), the “cell metabolic activity (MTT)” value is “constantly effective on cell metabolic activity over the concentrations”. In addition, the “cell cycle progression (H2O2-induced G2 increase)” value in data set [5] was “weakly but significantly counteract the H2O2-induced G2 increase”. Also, the “collagen type I secretion” value in data set [6] is on record as “weakly but significantly increases collagen type 1 secretion”.

Consider `CC#CCNc1ccc(S(N)(=O)=O)cc1.[C-]#[O+].[C-]#[O+].[C-]#[O+].[C-]#[O+].[C-]#[O+].[C-]#[O+].[Co].[Co]` [2a, 4-(but-2-yn-1-ylamino)benzenesulfonamide hexacarbonyldicobalt], for which the “CO-release profile (MbCO formed over time)” value in data set [3] is recorded as “superimposable profile of MbCO formed over time”. Moreover, the “cell metabolic activity (MTT)” value in data set [4] (24 h exposure) is listed as “significantly increase cell metabolic activity”; in data set [4] (48 h exposure), “increases tenocyte metabolic activity to a lesser extent than 1a”; in data set [7] (24 h exposure) it was “best test compounds able to increase cell metabolic activity”. Further, in data set [4] (48 h exposure), the “cytotoxicity (MTT)” value is on record as “biocompatible”.

As to `C#CCNc1ccc(S(N)(=O)=O)cc1` [A, 4-(prop-2-ynylamino)benzenesulfonamide, reference compound], the “cell metabolic activity (MTT)” value in data set [4] (48 h exposure) is listed as “still ineffective”. In addition, the “cell cycle progression (H2O2-induced G2 increase)” value in data set [5] is “ineffective”. In data set [6], the “collagen type I secretion” value was “do not enhance the secretion”.

As to `C#CCN(CC#C)c1ccccc1.[C-]#[O+].[C-]#[O+].[C-]#[O+].[C-]#[O+].[C-]#[O+].[C-]#[O+].[Co].[Co]` [CO-C, N,N-di(prop-2-yn-1-yl)aniline hexacarbonyldicobalt, reference compound], the MbCO formed in data set [3] turned out to be 3.72 µM. The “cell metabolic activity (MTT)” value is listed as “extremely active in terms of cell metabolic activity increase” in data set [4] (48 h exposure), “capable of increasing cell metabolic activity” in data set [7] (24 h exposure) and “increase cell metabolic activity only at 50 µM” in data set [7] (48 h exposure).

With `CCC#CCNc1ccc(S(N)(=O)=O)cc1.[C-]#[O+].[C-]#[O+].[C-]#[O+].[C-]#[O+].[C-]#[O+].[C-]#[O+].[Co].[Co]` [3a, 4-(pent-2-yn-1-ylamino)benzenesulfonamide hexacarbonyldicobalt], in data set [3], the “CO-release profile (MbCO formed over time)” value is “superimposable profile of MbCO formed over time”. For the same compound, the “cytotoxicity (MTT)” value is reported as “reveal cytotoxicity” in data set [4] (24 h exposure) and “cytotoxic at the highest concentrations used” in data set [7] (24 h exposure).

On to `C#CCOc1ccccc1.[C-]#[O+].[C-]#[O+].[C-]#[O+].[C-]#[O+].[C-]#[O+].[C-]#[O+].[Co].[Co]` [CO-B, (Prop-2-yn-1-yloxy)benzene hexacarbonyldicobalt, reference compound], for which, in data set [3], the MbCO formed was determined as 4 µM. For the same compound, the “cell metabolic activity (MTT)” value in data set [4] (48 h exposure) was “extremely active in terms of cell metabolic activity increase”; in data set [7] (24 h exposure) it was “capable of increasing cell metabolic activity”; in data set [7] (48 h exposure) it was “can increase cell metabolic activity over the concentration range”.

Consider `CCC#CCOc1ccc(S(N)(=O)=O)cc1.[C-]#[O+].[C-]#[O+].[C-]#[O+].[C-]#[O+].[C-]#[O+].[C-]#[O+].[Co].[Co]` [3b, 4-(Pent-2-yn-1-yloxy)benzenesulfonamide hexacarbonyldicobalt], for which the “cytotoxicity (MTT)” value in data set [4] (48 h exposure) is “cytotoxic, already at the lowest concentration”.

As for `CCC#CCN(CC#CCC)c1ccc(S(N)(=O)=O)cc1.[C-]#[O+].[C-]#[O+].[C-]#[O+].[C-]#[O+].[C-]#[O+].[C-]#[O+].[Co].[Co]` [3c, 4-(Di(pent-2-yn-1-yl)amino)benzenesulfonamide hexacarbonyldicobalt], the “cytotoxicity (MTT)” value in data set [4] (48 h exposure) is given as “cytotoxic, already at the lowest concentration”.

For the compound `C#CCNc1ccccc1.[C-]#[O+].[C-]#[O+].[C-]#[O+].[C-]#[O+].[C-]#[O+].[C-]#[O+].[Co].[Co]` [CO-A, N-(prop-2-yn-1-yl)aniline hexacarbonyldicobalt, reference compound], the MbCO formed in data set [3] is 8.1 µM. Further, the “cell metabolic activity (MTT)” value is recorded as “extremely active in terms of cell metabolic activity increase” in data set [4] (48 h exposure), “capable of increasing cell metabolic activity” in data set [7] (24 h exposure) and “increase cell metabolic activity only at 50 µM” in data set [7] (48 h exposure).

Turning to `C#CCOc1ccc(S(N)(=O)=O)cc1` [B, 4-(prop-2′-ynyloxy)benzenesulfonamide, reference compound], the “cell metabolic activity (MTT)” value in data set [4] (48 h exposure) is listed as “still ineffective”.

Regarding `CC#CCN(CC#CC)c1ccc(S(N)(=O)=O)cc1.[C-]#[O+].[C-]#[O+].[C-]#[O+].[C-]#[O+].[C-]#[O+].[C-]#[O+].[Co].[Co]` [2c, 4-(Di(but-2-yn-1-yl)amino)benzenesulfonamide hexacarbonyldicobalt], the “cell metabolic activity (MTT)” value is “significantly increase cell metabolic activity” in data set [4] (24 h exposure), “constantly effective on cell metabolic activity over the concentrations” in data set [4] (48 h exposure), “best test compounds able to increase cell metabolic activity” in data set [7] (24 h exposure) and “the best compound in terms of cell metabolic activity increase” in data set [7] (48 h exposure).

Take `CC(=O)Nc1nnc(S(N)(=O)=O)s1` [AAZ, acetazolamide, reference compound]: the “cell metabolic activity (MTT)” value in data set [4] (48 h exposure) is recorded as “still ineffective”. In addition, the “cytotoxicity (MTT)” value in data set [7] (24 h exposure) was “cytotoxicity at the highest dose”; in data set [7] (48 h exposure), “cytotoxic at the highest concentration”. Also, the “cell cycle progression (H2O2-induced G2 increase)” value in data set [5] is recorded as “ineffective”. In data set [6], the “collagen type I secretion” value is listed as “do not enhance the secretion”.
